For data set [1], the system named is Plasmodium falciparum. In words: Antimalarial activity against chloroquine resistant Plasmodium falciparum RKL9 assessed as reduction in schizont maturation incubated for 24 hrs by Giemsa staining based assay. In kind it is functional, organism-based. As to conditions: RKL9, 24 h.
The next data set deals with Plasmodium berghei. Put plainly: Antimalarial activity against Plasmodium berghei ANKA infected in Swiss albino mouse assessed as parasitemia suppression at 50 micromol/kg, po administered for 4 days and measured at 24 hrs post-last dose by Giemsa staining based microscopic method relative to control. In kind it is functional. As to conditions: dose 50 µmol/kg; time 4 day.

Data set [2] deals with Plasmodium falciparum. In words: Antiplasmodial activity against chloroquine sensitive Plasmodium falciparum D10. It counts as functional, organism-based.
For data set [3], the system named is Plasmodium falciparum. Put plainly: Antiplasmodial activity against chloroquine resistant Plasmodium falciparum Dd2. It counts as functional, organism-based.
Data set [4] concerns Falcipain-2 (Plasmodium falciparum). Put plainly: Inhibition of Plasmodium falciparum falcipain-2 in enzyme assay.
The test system of data set [5] is Plasmodium falciparum. In words: Antimalarial activity against chloroquine sensitive Plasmodium falciparum 3D7 incubated for 72 hrs by JSB1/JSB2 staining based assay. Particulars: 3D7, 72 h. In kind it is functional, organism-based.
Data set [6] deals with Plasmodium falciparum. Put plainly: Antimalarial activity against chloroquine resistant Plasmodium falciparum incubated for 24 to 48 hrs by Giemsa staining based assay. In kind it is functional, organism-based.
Data set [7] has as its system Plasmodium falciparum. Put plainly: Antimalarial activity against chloroquine sensitive Plasmodium falciparum incubated for 24 to 48 hrs by Giemsa staining based assay. It counts as functional, organism-based.
Data set [8] relates to Plasmodium falciparum. Put plainly: Antimalarial activity against chloroquine-resistant ring-stage Plasmodium falciparum W2 infected in human erythrocytes by HRP2 assay. It counts as functional, organism-based.
In data set [9] the test system is Plasmodium falciparum. Put plainly: Antiplasmodial activity against chloroquine-sensitive/mefloquine resistant early ring stage Plasmodium falciparum 3D7 by whole-cell SYBR Green I based assay. It counts as functional, organism-based.
The test system of data set [10] is Plasmodium falciparum. In words: Antiplasmodial activity against chloroquine-resistant/mefloquine resistant early ring stage Plasmodium falciparum Dd2 by whole-cell SYBR Green I based assay. It counts as functional, organism-based.
Data set [11] has as its system Plasmodium falciparum. Put plainly: Antiplasmodial activity against Plasmodium falciparum IPC5202 by whole-cell SYBR Green I based assay. It counts as functional, organism-based.
Data set [12] deals with Plasmodium falciparum. In words: Antiplasmodial activity against Plasmodium falciparum IPC4912 by whole-cell SYBR Green I based assay. It counts as functional, organism-based.
Data set [13] relates to Plasmodium falciparum. Put plainly: Antimalarial activity against Plasmodium falciparum assessed as reduction in [3H]-hypoxanthine incorporation into DNA incubated for 36 hrs by beta counter method. It counts as functional, organism-based.
Data set [14] deals with T1, Enoyl-acyl-carrier protein reductase (Plasmodium falciparum, UniProt Q965D5).
T1 sequence (Q965D5 whole entry): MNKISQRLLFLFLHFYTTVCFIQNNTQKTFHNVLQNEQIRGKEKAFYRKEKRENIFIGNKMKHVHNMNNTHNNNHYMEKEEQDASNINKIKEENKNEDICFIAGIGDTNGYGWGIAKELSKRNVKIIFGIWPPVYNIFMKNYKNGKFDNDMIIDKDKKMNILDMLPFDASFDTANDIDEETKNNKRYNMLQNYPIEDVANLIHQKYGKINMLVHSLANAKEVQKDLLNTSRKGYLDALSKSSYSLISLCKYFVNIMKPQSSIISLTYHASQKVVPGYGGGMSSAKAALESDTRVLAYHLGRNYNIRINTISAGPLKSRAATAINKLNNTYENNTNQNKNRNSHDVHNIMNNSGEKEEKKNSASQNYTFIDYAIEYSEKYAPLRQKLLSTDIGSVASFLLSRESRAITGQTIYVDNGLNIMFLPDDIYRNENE
In words: Inhibition of Plasmodium falciparum enoyl-ACP reductase using crotonoyl-CoA as substrate by UV-Vis spectrophotometric method.

Data set [15] has as its system Plasmodium falciparum. In words: Antiplasmodial activity against chloroquine sensitive Plasmodium falciparum FCR-3 infected in human erythrocytes incubated for 72 hrs by giemsa staining based assay. Particulars: FCR-3, 72 h. In kind it is functional, organism-based.
Data set [16] is described as follows: Selectivity index, ratio of EC50 for cytotoxicity against […] cells to EC50 for antiplasmodial activity against Plasmodium falciparum FCR-3 ATCC 30932 infected in human erythrocytes. In kind it is toxicity, cell-based. Particulars: mouse, read-out: Ratio EC50.

As to `O=Cc1cn(-c2ccc(Cl)cc2)nc1-c1ccccc1`, in the data set with Plasmodium falciparum [1], the IC50 is 33 nM. Besides, the Activity in the data set on Plasmodium berghei is on record as 83%.

In the case of `Cc1ccc(-c2cn(CC3CN3Cc3ccccc3)nn2)cc1` (stereo not drawn), the half-maximal inhibitory concentration (IC50) with Plasmodium falciparum [2] and in the data set on Plasmodium falciparum [3] was ≤ 25000 nM throughout.

The compound `COc1ccc(/C=C(\C#N)c2nc3ccccc3[nH]2)cc1O` registered an IC50 in data set [4] of 690 nM.

As to `Cc1ccc(-n2cc(C(=O)O)c(-c3ccccc3)n2)cc1`, in the data set with Plasmodium falciparum [1], the IC50 turned out to be 33 nM. In addition, the Activity in the data set with Plasmodium berghei is recorded as 83%.

For the compound `COc1ccc(-n2cc(C3CC(c4ccc(N)cc4)=NN3C(N)=S)c(-c3ccccc3)n2)cc1` (stereo not drawn), the IC50 with Plasmodium falciparum [5] is < 5000 nM.

For `Cc1ccc(-n2cc(C=O)c(-c3ccccc3)n2)cc1`, the IC50 in the data set on Plasmodium falciparum [1] amounted to 33 nM. In the data set on Plasmodium berghei, the Activity turned out to be 83%.

In the case of `NCCc1cncn1Cc1ccccc1`, the IC50 in the data set on Plasmodium falciparum [6] and with Plasmodium falciparum [7] was 10000 nM each time.

With `Cc1ccc(-n2cc(/C=N/Nc3ccncc3)c(-c3ccccc3)n2)cc1`, the IC50 in the data set on Plasmodium falciparum [1] was found to be 33 nM.

Turning to `COc1cccc(/C=C(/C#N)c2nc3ccccc3[nH]2)c1`, the IC50 in data set [4] is 690 nM.

`Clc1ccc2c(-n3cc(OC4CCCCO4)nn3)ccnc2c1` (stereo not drawn): 1400 nM corresponded to half-maximal inhibition in the data set with Plasmodium falciparum [8] (IC50).

In [4], `COc1cc(/C=C(/C#N)c2nc3ccccc3[nH]2)cc(OC)c1` yielded a concentration for half-maximal inhibition (IC50) of 690 nM.

Consider `NC(=S)N1N=C(c2ccc(N)cc2)CC1c1cn(-c2ccccc2)nc1-c1ccccc1` (stereo not drawn), for which the IC50 in the data set with Plasmodium falciparum [5] was < 5000 nM.

Consider `Cn1nnnc1NCC1CCC2(CC1)OOC1(OO2)C2CC3CC(C2)CC1C3` (stereo not drawn), for which the IC50 in the data set on Plasmodium falciparum [9], with Plasmodium falciparum [10], with Plasmodium falciparum [11] and in the data set with Plasmodium falciparum [12] was 0.3 nM in each case.

As for `N#Cc1c(Nc2ccccc2)n[nH]c1N`, in the data set on Plasmodium falciparum [13], the IC50 stood at 140 nM.

The compound `Clc1ccc2c(-n3cc(-c4ccccc4)nn3)ccnc2c1` returned a half-maximal inhibitory concentration (IC50) in the data set on Plasmodium falciparum [8] of 1400 nM.

Consider `CC(C)n1cncc1CC(N)C(=O)O` (stereo not drawn), for which the IC50 in the data set on Plasmodium falciparum [6] and with Plasmodium falciparum [7] was 10000 nM each time.

Turning to `O=[N+]([O-])c1ccc(N/N=C/c2cn(-c3ccc(Cl)cc3)nc2-c2ccccc2)c([N+](=O)[O-])c1`, the IC50 in the data set with Plasmodium falciparum [1] was determined as 33 nM.

`CC(C)(C)c1nc(CC(N)C(=O)O)c[nH]1` (stereo not drawn): the half-inhibitory concentration (IC50) in the data set on Plasmodium falciparum [6] and with Plasmodium falciparum [7] was 10000 nM in each case.

Consider `CC(C)n1c(CC(N)C(=O)O)cnc1Cc1ccccc1` (stereo not drawn), for which the IC50 in the data set with Plasmodium falciparum [6] and in the data set with Plasmodium falciparum [7] was 10000 nM each time.

Regarding `COc1ccccc1Nc1n[nH]c(N)c1C#N`, the IC50 with Plasmodium falciparum [13] came out at 140 nM.

With `CC(C)(C)c1nc(CCN)c[nH]1`, the concentration for half-maximal inhibition (IC50) with Plasmodium falciparum [6] and with Plasmodium falciparum [7] was 10000 nM each time.

For the compound `Clc1ccccc1CN1CC1Cn1cc(-c2ccccc2)nn1` (stereo not drawn), in the data set with Plasmodium falciparum [3], the IC50 is ≤ 25000 nM.

In data set [14], `O=[N+]([O-])c1ccc(-c2cc(C(F)(F)F)nn2-c2ccccc2)cc1` showed a half-maximal inhibitory concentration (IC50) of 50000 nM.

For `COc1ccc(Nc2n[nH]c(N)c2C#N)cc1`, in the data set on Plasmodium falciparum [13], the IC50 turned out to be 140 nM.

In the case of `CCn1c(=O)/c(=C2\Sc3ccccc3N2C)s/c1=C\c1cccc(-c2ccccc2)[n+]1C`, the EC50 in the data set with Plasmodium falciparum [15] came out at 4 nM. In addition, the selectivity ratio in [16] was > 100.

Turning to `Cn1nnnc1NCC1CCC2(CC1)OOC1(O2)C2CC3CC(C2)CC1C3` (stereo not drawn), the half-maximal inhibitory concentration (IC50) in the data set on Plasmodium falciparum [9], in the data set with Plasmodium falciparum [10], with Plasmodium falciparum [11] and in the data set with Plasmodium falciparum [12] was 0.3 nM each time.

Consider `CC(C)c1nc(CC(N)C(=O)O)c[nH]1` (stereo not drawn), for which the IC50 in the data set on Plasmodium falciparum [6] and with Plasmodium falciparum [7] was 10000 nM each time.

With `O=C(O)c1cn(-c2ccc(Cl)cc2)nc1-c1ccccc1`, in the data set on Plasmodium falciparum [1], the IC50 was determined as 33 nM. The Activity in the data set with Plasmodium berghei turned out to be 83%.

Turning to `CCNCC(Cn1cc(-c2ccccc2)nn1)NCc1ccccc1` (stereo not drawn), the IC50 in the data set on Plasmodium falciparum [2] was ≤ 25000 nM.

On to `Clc1ccc2c(-n3cc(C4CC4)nn3)ccnc2c1`, for which, in the data set with Plasmodium falciparum [8], the IC50 is 1400 nM.

Usually IC50 stands for the midpoint of a concentration-inhibition curve. As a reminder, the EC50 is the midpoint of the concentration-response curve. Read a high EC50 as a need for much substance.
